In data set [1] the target is avidin (Sigma) (UniProt P02701). As to the kind of experiment: capture ELISA: PMB-Cys-FL on avidin-coated wells, detected with chicken anti-PMB 1/1000.
Data set [2] has the same target. The experiment in a line: capture ELISA: PMB-Cys-FL on avidin-coated wells, chicken preimmune 1/1000 (double control). Background: ELISA stands for enzyme-linked immunosorbent assay.
The test system of data set [3] is E. coli 25922. In kind it is cell-based. As to conditions: Table 42.
Data set [4] deals with E. coli H16. In kind it is cell-based. To be noted: Table 42.
Data set [5] has as its system E. coli 0111:B4.
Data set [6] deals with E. coli 25922.
Data set [7] concerns E. coli H16.
The subject of data set [8] is Salmonella 34576. As to conditions: Table 43.
The target in data set [9] is Fc receptors of the human U937 monocyte/macrophage cell line (human). As to the kind of experiment: saturation binding of 125I-IgG to 2×10^5 U937 cells.
Data set [10] shares this target. The experiment in a line: 1×10^-8 M 125I-IgG on 2×10^5 U937 cells, no competitor.
Data set [11] deals with Staphylococcus epidermidis. The experiment in a line: MIC and MBC. In kind it is cell-based.
The test system of data set [12] is S. aureus. As to the kind of experiment: MIC testing against S. aureus. The class given is cell-based, Staph. aureus. To be noted: Staphylococcus aureus. As for the experimental part: 1.5 ml fractions were collected. The fractions in the void volume were pooled and sterile filtered. The activity of the conjugate was determined by standard MIC testing against S. aureus.

The conditions of data set [13]: vancomycin after reaction with crosslinker, aqueous solution.
Source text: Vancomycin in phosphate buffer was reacted with each of the following compounds: sulfosuccinimidyl 6-[3-(2-pyridyldithio)propionamide]hexanoate (“sulfo-LC-SPDP”), m-maleimidobenzoyl-N-hydroxysulfosuccinimide ester (“sulfo-MBS”), sulfosuccinimidyl(4-iodoacetyl)aminobenzoate (“sulfo-SIAB”), and sulfosuccinimidyl 4-(p-maleimidophenyl)butyrate (“sulfo-SMPB”). All four crosslinking agents react with a primary amino group on the vancomycin molecule, resulting in the formation of an amide bond. […] Finally, vancomycin derivatized by sulfo-SIAB posesses an iodo group, which can also react with a sulfhydryl group on either reduced IgG or derivatized IgG, by nucleophilic substitution for the iodo group. […] The mixtures were incubated with agitation at ambient temperature.
Data set [14] concerns E. coli 0111:B4. In kind it is cell-based. Details: key: −: no agglutination; +: microagglutination; +++: macroagglutination. As to conditions: avidin beads loaded with compound. As for the experimental part:
(§1) 100 ul polystyrene beads (Spherotech […], 5% w/v) were aliquoted to two 1.5 mL microcentrifuge tubes, centrifuged 1 min at 12,000 g in microcentrifuge and washed 2×with 1 ml PBS (vortexed and recentrifuged 1-2 min after each wash). The beads were resuspended in 900 ul PBS, and 100 ul of 1 mg/ml solution of avidin (Sigma) added, and the tubes rotated overnight at room temperature. The beads were pelleted, and washed sequentially as described above with 1 ml PBS, PBS+0.5% tween 20 (PBST), and PBS, and each sample resuspended in 200 ul PBS. The samples were pooled and stored at 4 degrees.
(§2) 20 ul avidin coated beads were aliquoted into 2×1.5 ml microcentrifuge tubes, and non-specifically binding sites blocked by rotating with 1 ml PBS+1% BSA for 1 hr at room temperature. […] The samples were pelleted, and washed with 1 ml PBS, repelleted and resuspended with 20 ul PBS. III Bacterial Agglutination Assays
(§3) 5 ul of each resin was added to 20 ul bacteria (1/10 dilution of a saturated overnight culture) in independant depression wells (2 wells/bacteria tested). The samples were incubated 30 min at 37 degrees, swirled, and agglutination scored. (Note that −=no agglutination, +=microagglutination and +++=macroagglutination)

In data set [15] the test system is E. coli HB101. In kind it is cell-based. The arrangement: key: −: no agglutination; +: microagglutination; +++: macroagglutination. To be noted: avidin beads loaded with compound. As for the experimental part:
as §1, §2, §3

For data set [16], the system named is Salmonella 34576. In kind it is cell-based. Details: key: −: no agglutination; +: microagglutination; +++: macroagglutination. To be noted: avidin beads loaded with compound. As for the experimental part: as §1, §2, §3
For data set [17], the system named is E. coli J5. In kind it is cell-based. Details: key: −: no agglutination; +: microagglutination; +++: macroagglutination. As to conditions: for Agglutination by avidin beads: Table 53. How it is done:
as §1, §2, §3
To determine if free Immunoadaptor™ compounds can also stably bind surface exposed bacterial structures, agglutination assays were performed using bacteria prebound to Immunoadaptor™ compounds. The assay was performed with J5 bacteria, since the agglutination signal (see table above) was the strongest with this strain. 40 ul avidin coated resin was blocked for 1 hr at room temperature with 1 ml PBS+1% BSA, pelleted as described above, and resuspended in 40 ul PBS. […] The following assays were performed:
Incubated 1 hr at 37 degrees in depression well, swirled and agglutination scored.
Incubated 10 min at 37 degrees then added 5 ul avidin coated beads. Incubated 1 hr at 37 degrees in depression well, swirled and agglutination scored.
Incubated 15 min at 37 degrees, pelleted cells by centrifugation, washed with 100 ul PBS (resuspended cells with micropipetter) and repelleted. Cells were resuspended in 80 ul PBS, 20 ul aliquots distributed to depression well, 5 ul avidin coated beads added, and, incubated 1 hr at 37 degrees, swirled and agglutination scored.

The subject of data set [18] is J5 bacteria phagocytosed by J774A.1 mouse macrophage cell line. The class given is cell-based. To be noted: Table 57; + anti-avidin (1/1000).
The target of data set [19] is avidin and chicken anti-PMB antibody (Gallus gallus, UniProt P02701).
Chain of avidin and chicken anti-PMB antibody (P02701 25-152): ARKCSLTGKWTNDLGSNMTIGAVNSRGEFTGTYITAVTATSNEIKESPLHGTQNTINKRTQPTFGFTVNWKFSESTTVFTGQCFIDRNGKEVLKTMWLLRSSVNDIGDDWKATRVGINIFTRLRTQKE
Description: The capture ELISA was performed as described below. […] The coating suspensions were decanted, and all wells were washed three times using PBS+0.5% Tween 20 (PBST). In order to block non-specific binding sites, 100 ul of 1% BSA (Sigma, St. Louis, Mo.) in PBS (blocking solution) was then added to each well, and the plates were incubated for 1 hr. at 37° C.
The blocking solution was decanted, and duplicate samples of 150 ul of either PMB-Cy-Biotin or PMB-Cy-Fl added to the first well of a dilution series. The initial testing concentration of the premixed conjugate was 10 ng/ml in blocking buffer (see above), followed by 5 fold dilutions in blocking buffer. This was accomplished by serially transferring 30 ul aliquots to 120 ul buffer, mixing, and repeating the dilution into a fresh well. After the final dilution, 30 ul was removed from the well such that all wells contained 120 ul final volume. A total of 2 such dilutions were performed. […] Following this incubation, the serially diluted samples were decanted, and the wells were washed six times using PBST (Phosphate-Buffered Saline with Tween). To each well, 100 ul of 1/1000 diluted chicken anti-PMB antibody or chicken preimmune, diluted in blocking buffer was added, and the plate incubated 1 hr at 37° C. The antibody solutions were decanted and the plates were washed as described above. To each well, 100 ul of 1/1000 diluted rabbit anti-chicken IgG alkaline phosphatase (Sigma) diluted in blocking buffer was added, and the plate incubated 1 hr at 37° C. The antibody solutions were decanted and the plates were washed as described above, substituting 50 nM Na2CO3, pH 9.5 for the PBST in the final wash. The plates were developed by the addition of 100 ul of a solution containing 1 mg/ml para-nitro phenyl phosphate (Sigma, St. Louis, Mo.) dissolved in 50 nM Na2CO3, 10 mM MgCl2, pH 9.5 to each well, and incubating the plates at room temperature in the dark overnight. […] Only the ELISA readings from the maximally diluted samples in each dilution series are shown.
The test system of data set [20] is K. pneumoniae LPS. As to the kind of experiment: Polarization of PMB-FITC by LPS. In kind it is binding. To be noted: 50 ul of 1 mg/ml LPS; PMB-FITC 1 to 150.
The subject of data set [21] is P. aeruginosa LPS. The experiment in a line: Polarization of PMB-FITC by LPS. The class given is binding. To be noted: 50 ul of 1 mg/ml LPS; PMB-FITC 1 to 150.
Data set [22] deals with R. sphaeroides LPS. As to the kind of experiment: Polarization of PMB-FITC by LPS. In kind it is binding. As to conditions: 50 ul of 1 mg/ml LPS; PMB-FITC 1 to 150.
Data set [23] deals with S. marsecens LPS. The experiment in a line: Polarization of PMB-FITC by LPS. The class given is binding. As to conditions: 50 ul of 1 mg/ml LPS; PMB-FITC 1 to 150.
Data set [24] has as its system S. enteriditis LPS. The experiment in a line: Polarization of PMB-FITC by LPS. The class given is binding. To be noted: 50 ul of 1 mg/ml LPS; PMB-FITC 1 to 150.
Data set [25] concerns S. typhimurium LPS. The experiment in a line: Polarization of PMB-FITC by LPS. In kind it is binding. As to conditions: 50 ul of 1 mg/ml LPS; PMB-FITC 1 to 150.
Data set [26] relates to E. coli 011B4 LPS. In kind it is binding. As to conditions: 50 ul of 1 mg/ml LPS; PMB-FITC 1 to 150. From the text:
(§4) The data for this example were generated on a fluorescence polarimeter (FPM-1, provided by Jolley Consulting and Research, Inc.) based on this optical configuration. The instrument and software generates output which includes vertical intensity (IV), horizontal intensity (IH), total intensity (IT) after correction of horizontal intensity by a constant (g), fluorescence polarization in millipolarization unit (mP) and lamp feed-back, a correction for lamp and photomultiplier tube variations.
(§5) Each of ten different lipopolysaccarides (LPS) were dissoved in distilled water at a concentration of 1 mg/ml.

For data set [27], the system named is E. coli 026B6 LPS. The class given is binding. As to conditions: 50 ul of 1 mg/ml LPS; PMB-FITC 1 to 150.
Source text: as §4, §5

The test system of data set [28] is S. flexneri LPS. In kind it is binding. As to conditions: 50 ul of 1 mg/ml LPS; PMB-FITC 1 to 150.
Source text: as §4, §5

Data set [29] has as its system V. cholera LPS. The class given is binding. As to conditions: 50 ul of 1 mg/ml LPS; PMB-FITC 1 to 150.
Source text: as §4, §5

Data set [30] has as its system E. coli HB101.
For data set [31], the target named is polymyxin B-cysteine-maleimide-fluorescein (PMB-Cys-Mal-FL) (Bacillus polymyxa). As to the kind of experiment: fluorescence intensity of PMB-Cys-Mal-FL with antibody.
Data set [32] shares this target. The experiment in a line: fluorescence quenching on PMB-Cys-Mal-FL coated E. coli.
For data set [33] the target is unchanged. As to the kind of experiment: quenching of PMB-Cys-Mal-FL coated on E. coli 0111:B4; antibody 1 ug/ml (without antibody: 40).
For data set [34] the target is unchanged. The experiment in a line: quenching of PMB-Cys-Mal-FL coated on E. coli 0111:B4; antibody 2 ug/ml (without antibody: 40).
For data set [35] the target is unchanged. The experiment in a line: fluorescence polarization, antibody 5×10^-8 M with PMB-Cys-Mal-FL 10^-7 M (free conjugate: 740). (In general: Fluorescence polarisation rises when a labelled molecule tumbles more slowly, as on binding a larger partner.)
For data set [36] the target is unchanged. As to the kind of experiment: fluorescence polarization, antibody 5×10^-8 M with PMB-Cys-Mal-FL 10^-7 M (free conjugate: 845).
Data set [37] shares this target. As to the kind of experiment: quenching of PMB-Cys-Mal-FL coated on E. coli 0111:B4; antibody 22 ug/ml (without antibody: 40).
The target is the same in data set [38]. The experiment in a line: fluorescence polarization, antibody 5×10^-8 M with PMB-Cys-Mal-FL 10^-7 M (free conjugate: 32.5 mP).
The target of data set [39] is avidin (Sigma) (UniProt P02701). The experiment in a line: capture ELISA: PMB-Cys-Biotin on avidin-coated wells, detected with chicken anti-PMB 1/1000; maximally diluted sample of a 5-fold series from 10 ng/ml.
Data set [40] relates to E. coli HB101. The experiment in a line: MIC and MBC in broth. In kind it is cell-based. To be noted: Example 38.
Where [41] appears, read: Table 40, first number of the cell.

Converted amounts (≈) assume the structure as drawn. Read-outs that look alike come from different tables or passages of the source. Ends that are not written are not given here.

What is called MBC is the smallest concentration meeting the test's criterion for killing.

Chain of avidin (Sigma) (P02701 25-152 limits assumed): as the sequence (P02701 25-152) above

Turning to “polymyxin B-cysteine-maleimide-fluorescein (PMB-Cys-Mal-FL) (peptide)”, the absorbance at 410 nm turned out to be 0.033 A410 in data set [1] and 0.01 A410 in data set [2].
In the case of “ALYKKLLKKLLKSAKKLG [C18G, ala-leu-tyr-lys-lys-leu-leu-lys-lys-leu-leu-lys-ser-ala-lys-lys-leu-gly, reference compound]”, the BDA in [3] is 1 µg/mL; in data set [4], 5 to 10 µg/mL. The MIC is 10 µg/mL in data set [5] (0111:B4), 2 to 4 µg/mL in [6], 30 µg/mL in data set [7] and 5 to 10 µg/mL in data set [8].
“125I-labelled human IgG (New England Nuclear) (antibody)”: in [9], the saturating concentration is 10 nM. Further, the bound radioactivity (cpm) in [10] is 12000 cpm.
On to `CN[C@H](CC(C)C)C(=O)N[C@H]1C(=O)N[C@@H](CC(N)=O)C(=O)N[C@H]2C(=O)N[C@H]3C(=O)N[C@H](C(=O)N[C@H](C(=O)O)c4cc(O)cc(O)c4-c4cc3ccc4O)[C@H](O)c3ccc(c(Cl)c3)Oc3cc2cc(c3O[C@@H]2O[C@H](CO)[C@@H](O)[C@H](O)[C@H]2O[C@H]2C[C@](C)(N)[C@H](O)[C@H](C)O2)Oc2ccc(cc2Cl)[C@H]1O` [Vanco, Vancomycin], for which the MBC in [11] was found to be 2.5 µg/mL (≈ 1.73 µM). For the same compound, the MIC was 1 to 2 µg/mL (≈ 0.69 to 1.38 µM) in data set [12] and 1 µg/mL (≈ 0.69 µM) in [12] (read-out: MIC w/o IgG). For the same compound, the Soluble result in data set [13] is “Yes”.
Turning to “Biotinylated Cysteinyl PMB [PMB-Cys-Biotin]”, the Agglutination entry is given as “−” in data set [14], “+” in data set [15], “+” in data set [16] and “+++” in data set [17] (avidin beads loaded with compound). Further, the “Agglutination by avidin beads” value in [17] (Chase format), in data set [17] (Premix format) and in data set [17] (Wash + Chase format) was “+” in each case. For the same compound, the “% Macrophage with phagocytosed bacteria” value in data set [18] was 21%. The Recovered bacterial colonies in [18] amounted to 74. In [5] (setting [41]), this compound yielded an MIC of 1.0 µg/mL. The “ELISA absorbency at 410 nm” value amounted to 1.252 in data set [19] (Anti-PMB test antibody, Avidin coated wells, maximally diluted sample); 0.016 in [19] (Anti-PMB, PBS coated wells); 0.014 in data set [19] (Preimmune, Avidin coated wells); 0.019 in data set [19] (Preimmune, PBS coated wells).
With “PMB-5-Thiocabamoyl-fluorescein [PMB-FITC]”, the mP in data set [20] stood at 258.5; in [21], 236.4; in [22], 224.7; in data set [23] it was 262.6; in data set [24], 255.9; in data set [25], 266.8. For the same compound, the mP is 254.6 in data set [26], 70.3 in [27], 246.3 in data set [28] and 174.8 in [29]. Besides, the MIC in [30] (setting [41]) and in data set [30] (Table 44) was 0.2 µg/mL each time.
“mouse monoclonal anti-fluorescein antibody (#4-4-20)”: the percent of the intensity signal quenched in data set [31] was 95%. This compound returned a fraction of fluorescein available to bind the antibody in [32] of 0.67. Further, the FLUORESCENCE (AFU) in data set [33] came to 16 AFU; in data set [34], 15 AFU; in [37], 15 AFU. Besides, the IH (horizontal intensity) in [35] was found to be 25. Further, the IV (vertical intensity) in [36] turned out to be 61. Moreover, the mP (millipolarization) in data set [38] was determined as 390 mP.
In data set [39], “Biotinylated Cysteinyl PMB (PMB-Cys-Biotin) (peptide)” had an absorbance at 410 nm of 1.25 A410.
Turning to “Limulus antilipopolysaccharide factor [native LALF]”, the MIC in [40] was 16 µg/mL.

(Values after patent publication US6579696B1, “Polymyxin B conjugates” (priority 1992, dated 2003).)
